Here are results for eleven compounds from PubChem BioAssay (NCI).

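Compound exposure: 48 hours, 5 concentrations, 96-well plates. GI50 is the concentration that inhibits growth by half. TGI is the concentration that stops growth completely.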

Some test systems named below: UACC-62 melanoma; HOP-62 NSCLC; UACC-257 melanoma; ACHN renal; SK-OV-3 ovarian; 786-0 renal; HS 578T breast.
Test in all cases: NCI tumour cell line growth inhibition, 48 h

On to `O=CC(Br)C(Br)c1ccccc1` (stereo not drawn), for which the GI50 with UACC-62 melanoma is 1.79 µM; with HOP-62 NSCLC, 13.3 µM; with UACC-257 melanoma, 1.9 µM; with ACHN renal, 1.64 µM; in the test on SK-OV-3 ovarian, 16.6 µM; in the test on 786-0 renal it was 2.5 µM. Also, the GI50 in the test with HS 578T breast is 8.81 µM. Moreover, the TGI in the test with UACC-62 melanoma is 3.74 µM; in the test on HOP-62 NSCLC, 27.8 µM; in the test on UACC-257 melanoma, 4.56 µM; in the test on ACHN renal it was 3.12 µM; in the test on SK-OV-3 ovarian, 30.3 µM; with 786-0 renal, 6.46 µM. Further, the TGI in the test on HS 578T breast turned out to be 43.9 µM.
Regarding `COc1ccc(-c2nn(-c3cccc(Cl)c3)cc2-c2c(C#N)c(=O)n3[nH]c(-c4ccc(C)cc4)nc3c2C#N)cc1`, the GI50 in the test on UACC-62 melanoma is 2.54 µM; with HOP-62 NSCLC it was 0.884 µM; with UACC-257 melanoma, 6.68 µM; with ACHN renal, 2.41 µM; with SK-OV-3 ovarian it was 3.3 µM; with 786-0 renal, 1.39 µM. Also, the GI50 in the test on HS 578T breast was 1.23 µM. The TGI with UACC-62 melanoma is 10.2 µM; in the test on HOP-62 NSCLC it was 2.19 µM; in the test with UACC-257 melanoma, 16.7 µM; in the test with ACHN renal, 12.6 µM; in the test with SK-OV-3 ovarian, 9.54 µM; in the test on 786-0 renal, 5.93 µM. In the test on HS 578T breast, the TGI amounted to 15 µM.
With `CN1C(=O)C(=Cc2cn(Cc3ccccc3)c3ccccc23)C(=O)N(C)C1=O`, the GI50 in the test with UACC-62 melanoma was 1.87 µM; with HOP-62 NSCLC, 43 µM; in the test with UACC-257 melanoma, 9.82 µM; with ACHN renal, 51.8 µM; in the test on SK-OV-3 ovarian it was 6.16 µM; in the test on 786-0 renal, 57.7 µM. The GI50 in the test with HS 578T breast is 17.8 µM. For the same compound, the TGI in the test with UACC-62 melanoma is greater than 35.3 µM; with HOP-62 NSCLC it was greater than 100 µM; in the test with UACC-257 melanoma it was greater than 100 µM; with ACHN renal, greater than 100 µM; in the test with SK-OV-3 ovarian it was greater than 100 µM; in the test on 786-0 renal it was greater than 100 µM. The compound also came in with a TGI in the test on HS 578T breast greater than 81.5 µM.
As for `COc1ccc(-c2cn(-c3cccc(C(=O)/C=C/c4ccc(O)c(OC)c4)c3)c(=O)[nH]2)cc1`, the GI50 is 3.18 µM in the test on UACC-62 melanoma; 8.85 µM in the test on HOP-62 NSCLC; 8.03 µM in the test on UACC-257 melanoma; 2.55 µM in the test on ACHN renal; 4.32 µM in the test on SK-OV-3 ovarian; 4.32 µM in the test on 786-0 renal. For the same compound, in the test on HS 578T breast, the GI50 is 3.24 µM. For the same compound, the TGI in the test with UACC-62 melanoma was 16.1 µM; in the test with HOP-62 NSCLC, greater than 100 µM; in the test on UACC-257 melanoma, 39.3 µM; in the test with ACHN renal, 6.22 µM; with SK-OV-3 ovarian it was 48.6 µM; in the test with 786-0 renal it was 24.5 µM. The compound also displayed a TGI in the test with HS 578T breast greater than 27.2 µM.
With `O=C(O)c1ccc([S-])cc1.[Au+].c1ccc(CN2[CH-]N(Cc3ccccc3)C(c3ccccc3)=C2c2ccccc2)cc1`, the GI50 with UACC-62 melanoma was 0.319 µM; in the test with HOP-62 NSCLC it was 0.416 µM; with UACC-257 melanoma it was 0.283 µM; with ACHN renal, 0.332 µM; in the test with SK-OV-3 ovarian it was 0.352 µM; in the test on 786-0 renal, 0.376 µM. In addition, the GI50 in the test with HS 578T breast is 0.459 µM. Further, the TGI with UACC-62 melanoma was 1.4 µM; in the test with HOP-62 NSCLC it was 1.73 µM; with UACC-257 melanoma, 1.2 µM; in the test with ACHN renal it was 1.28 µM; in the test on SK-OV-3 ovarian it was 1.39 µM; with 786-0 renal, 1.59 µM. In addition, the TGI in the test with HS 578T breast is 2.84 µM.
With `Cc1cc([N+](=O)[O-])ccc1NS(=O)(=O)c1cc(Cl)ccc1Cl`, the GI50 is 1.29 µM with UACC-62 melanoma; 3.21 µM in the test with HOP-62 NSCLC; 2.02 µM in the test on UACC-257 melanoma; 3.18 µM in the test on ACHN renal; 2.51 µM in the test on SK-OV-3 ovarian; 3.03 µM with 786-0 renal. Also, in the test with HS 578T breast, the GI50 was 4.23 µM. For the same compound, the TGI with UACC-62 melanoma was 17.9 µM; in the test on HOP-62 NSCLC, 16.1 µM; in the test on UACC-257 melanoma it was 7.55 µM; in the test with ACHN renal, greater than 100 µM; in the test with SK-OV-3 ovarian it was 8.63 µM; in the test on 786-0 renal, 22.6 µM. In addition, the TGI in the test on HS 578T breast stood at 60.5 µM.
Regarding `CCOc1ccc2nc(-c3cccc(OCC(=O)NC(C)C)c3)nc(Nc3ccc(-c4cn[nH]c4)cc3)c2c1`, the GI50 in the test on UACC-62 melanoma is 1.21 µM; in the test with HOP-62 NSCLC it was 0.399 µM; with UACC-257 melanoma, 1.79 µM; with ACHN renal it was 0.675 µM; in the test with SK-OV-3 ovarian, 4.53 µM; in the test with 786-0 renal, 0.553 µM. Further, the GI50 with HS 578T breast is 0.132 µM. Further, the TGI in the test on UACC-62 melanoma was found to be 4.16 µM; with HOP-62 NSCLC, 2.22 µM; in the test on UACC-257 melanoma it was 4.12 µM; in the test on ACHN renal, 2.96 µM; in the test with SK-OV-3 ovarian, 13 µM; in the test with 786-0 renal it was 2.63 µM. Moreover, the TGI in the test on HS 578T breast turned out to be 1.72 µM.
Take `C[n+]1c2ccccc2c(Nc2ccc(NS(=O)(=O)CCCCN=C(N)N)cc2)c2ccc(N)cc21`: the GI50 in the test on UACC-62 melanoma was 0.917 µM; in the test with HOP-62 NSCLC, 0.217 µM; with UACC-257 melanoma it was 21.7 µM; in the test with ACHN renal, 2.79 µM; in the test with SK-OV-3 ovarian it was 2.77 µM; with 786-0 renal it was 3.8 µM. Further, in the test on HS 578T breast, the GI50 was 2.79 µM. Besides, the TGI with UACC-62 melanoma is 22.4 µM; in the test with HOP-62 NSCLC it was 26.6 µM; with UACC-257 melanoma it was greater than 95.6 µM; in the test with ACHN renal, greater than 100 µM; with SK-OV-3 ovarian, greater than 100 µM; in the test on 786-0 renal, greater than 100 µM. This compound also returned a TGI with HS 578T breast of 52.3 µM.
For the compound `Fc1cccc(CSc2ncnc3c2ncn3C2CCCS2)c1` (stereo not drawn), the TGI was 28.8 µM with UACC-62 melanoma; 40.3 µM in the test with HOP-62 NSCLC; 29.6 µM with UACC-257 melanoma; 39.7 µM in the test with ACHN renal; greater than 100 µM in the test on SK-OV-3 ovarian; 51.5 µM in the test with 786-0 renal. For the same compound, the TGI in the test on HS 578T breast was greater than 100 µM.
With `CC(=O)OCc1ccc(O)c(C=O)c1`, the TGI with UACC-62 melanoma, in the test on HOP-62 NSCLC, with UACC-257 melanoma, in the test with ACHN renal, in the test on SK-OV-3 ovarian and in the test on 786-0 renal was greater than 100 µM in each case. The compound also showed a TGI in the test on HS 578T breast greater than 100 µM.
Regarding `COc1ccc2nc(NCN3C(=O)c4ccccc4C3=O)sc2c1`, the TGI in the test on UACC-62 melanoma, with HOP-62 NSCLC, in the test on UACC-257 melanoma, in the test with ACHN renal, with SK-OV-3 ovarian and with 786-0 renal was greater than 100 µM throughout. Further, in the test with HS 578T breast, the TGI was greater than 100 µM.
